Laboratory results as given in ChEMBL document CHEMBL5046279, “Discovery of a Partial Glucokinase Activator Clinical Candidate: Diethyl ((3-(3-((5-(Azetidine-1-carbonyl)pyrazin-2-yl)oxy)-5-isopropoxybenzamido)-1H-pyrazol-1-yl)methyl)phosphonate (BMS-820132)” (J Med Chem, 2022).
pEC50, pIC50: −log10 of the molar value. Values after ≈ are worked out from the molar mass of the structure shown.

Legend:
[1] = Aqueous solubility of the compound at pH 6.5 using amorphous form of sample; format: physicochemical; conditions: aqueous solution
[2] = Microsomal stability in human liver microsomes assessed as parent compound remaining at 0.5 uM measured after 10 mins in presence of NADPH; format: ADME, Microsome; conditions: read-out: Stability
[3] = target: Voltage-gated inwardly rectifying potassium channel KCNH2 (Homo sapiens, UniProt Q12809); assay: Inhibition of hERG by patch clamp method; format: toxicity
Voltage-gated inwardly rectifying potassium channel KCNH2, sequence (Q12809 whole entry): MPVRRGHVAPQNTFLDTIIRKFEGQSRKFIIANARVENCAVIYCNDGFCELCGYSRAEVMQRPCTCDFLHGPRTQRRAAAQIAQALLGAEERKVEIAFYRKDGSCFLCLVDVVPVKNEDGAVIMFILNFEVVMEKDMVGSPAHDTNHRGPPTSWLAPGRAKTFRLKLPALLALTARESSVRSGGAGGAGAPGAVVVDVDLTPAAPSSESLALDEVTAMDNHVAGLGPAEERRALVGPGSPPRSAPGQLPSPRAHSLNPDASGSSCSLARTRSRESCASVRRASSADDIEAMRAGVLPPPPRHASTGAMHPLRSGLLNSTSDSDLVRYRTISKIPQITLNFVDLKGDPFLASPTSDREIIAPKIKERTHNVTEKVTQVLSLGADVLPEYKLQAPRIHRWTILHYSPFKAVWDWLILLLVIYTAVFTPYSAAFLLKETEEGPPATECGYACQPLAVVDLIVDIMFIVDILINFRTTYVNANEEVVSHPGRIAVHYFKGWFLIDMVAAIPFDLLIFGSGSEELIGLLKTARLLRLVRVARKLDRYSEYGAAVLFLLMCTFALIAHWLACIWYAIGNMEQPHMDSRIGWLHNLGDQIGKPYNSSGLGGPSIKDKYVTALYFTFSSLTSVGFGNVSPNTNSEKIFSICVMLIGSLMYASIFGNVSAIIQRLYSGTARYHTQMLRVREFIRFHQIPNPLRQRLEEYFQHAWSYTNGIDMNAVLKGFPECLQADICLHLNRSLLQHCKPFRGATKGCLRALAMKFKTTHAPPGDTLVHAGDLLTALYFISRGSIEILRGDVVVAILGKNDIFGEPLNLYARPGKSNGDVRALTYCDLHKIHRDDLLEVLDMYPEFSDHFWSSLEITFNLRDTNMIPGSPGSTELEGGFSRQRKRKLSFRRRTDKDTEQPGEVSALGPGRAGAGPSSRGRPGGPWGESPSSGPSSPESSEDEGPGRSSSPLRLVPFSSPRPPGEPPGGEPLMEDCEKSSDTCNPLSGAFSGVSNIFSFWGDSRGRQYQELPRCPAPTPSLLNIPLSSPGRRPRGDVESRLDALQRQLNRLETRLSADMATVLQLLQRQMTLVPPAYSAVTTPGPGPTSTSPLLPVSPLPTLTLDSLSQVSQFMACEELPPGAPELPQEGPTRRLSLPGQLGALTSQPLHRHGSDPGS

Hexokinase-4 [4] = target: T1, Hexokinase-4 (Homo sapiens, UniProt P35557); assay: Activation of recombinant full length human liver glucokinase expressed in Escherichia coli incubated for 10 mins by plate reader analysis
T1 sequence (P35557 whole entry): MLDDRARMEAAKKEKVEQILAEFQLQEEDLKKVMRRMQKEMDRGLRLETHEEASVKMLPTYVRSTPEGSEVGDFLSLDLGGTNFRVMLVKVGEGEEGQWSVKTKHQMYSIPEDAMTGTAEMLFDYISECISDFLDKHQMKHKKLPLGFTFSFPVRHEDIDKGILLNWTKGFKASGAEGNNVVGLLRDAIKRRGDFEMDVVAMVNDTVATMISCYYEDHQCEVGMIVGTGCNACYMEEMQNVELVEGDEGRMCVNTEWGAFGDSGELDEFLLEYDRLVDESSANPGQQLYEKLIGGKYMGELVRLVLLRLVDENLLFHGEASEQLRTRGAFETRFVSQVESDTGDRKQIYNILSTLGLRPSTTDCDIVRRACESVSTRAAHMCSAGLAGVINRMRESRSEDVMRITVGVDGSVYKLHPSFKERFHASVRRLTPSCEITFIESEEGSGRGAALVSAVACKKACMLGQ

[5] = Permeability of compound at pH 7.4 by PAMPA assay; format: ADME; conditions: read-out: permeability
hERG (KCNH2) = hERG (KCNH2) (Homo sapiens, UniProt Q12809); assay: Inhibition of hERG at 10 uM by patch clamp method relative to control; format: toxicity
hERG (KCNH2), sequence (Q12809 whole entry): as the sequence (Q12809 whole entry) above

Hexokinase-4 [6] = target: T1, Hexokinase-4; assay: Displacement of fluorescent labeled derivative from recombinant human hepatic glucokinase incubated for 30 mins in presence of 12 mM glucose by fluorescent polarization assay
Hexokinase-4 [7] = target: T2, Hexokinase-4 (Mus musculus, UniProt P52792); assay: Activation of recombinant mouse full length liver glucokinase expressed in Escherichia coli incubated for 10 mins in presence of 12 mM glucose by plate reader analysis
T2 sequence (P52792 whole entry): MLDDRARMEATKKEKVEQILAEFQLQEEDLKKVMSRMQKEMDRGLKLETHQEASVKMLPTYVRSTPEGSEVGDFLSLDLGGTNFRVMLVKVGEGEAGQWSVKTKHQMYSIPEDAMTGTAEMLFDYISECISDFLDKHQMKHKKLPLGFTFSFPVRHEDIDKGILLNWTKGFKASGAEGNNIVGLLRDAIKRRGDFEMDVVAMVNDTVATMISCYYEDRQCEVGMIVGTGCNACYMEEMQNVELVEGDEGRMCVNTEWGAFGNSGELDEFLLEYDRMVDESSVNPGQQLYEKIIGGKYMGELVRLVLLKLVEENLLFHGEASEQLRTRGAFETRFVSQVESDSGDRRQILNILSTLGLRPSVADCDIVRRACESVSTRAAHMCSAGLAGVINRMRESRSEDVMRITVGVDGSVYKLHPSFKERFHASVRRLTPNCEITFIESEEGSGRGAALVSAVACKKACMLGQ

Hexokinase-4 [8] = target: T1, Hexokinase-4; assay: Activation of recombinant human full length liver glucokinase expressed in Escherichia coli incubated for 10 mins in presence of 5 mM glucose by plate reader analysis
Hexokinase-4 [9] = target: T1, Hexokinase-4; assay: Activation of recombinant human full length liver glucokinase expressed in Escherichia coli incubated for 10 mins in presence of 2 mM glucose by plate reader analysis

solubility [1] [µg/mL]	remaining at 10 min, 0.5 µM [2] [%]	pEC50 (Hexokinase-4 [4])	Papp [5] [×10⁻⁶ cm/s]	Structure (SMILES)	pIC50 [3]	inhibition at 10 µM (hERG (KCNH2)) [%]	pIC50 (Hexokinase-4 [6])	pEC50 (Hexokinase-4 [7])	pEC50 (Hexokinase-4 [8])	pEC50 (Hexokinase-4 [9])
39 (≈ 68.2 µM)	66	7.60		CCOP(=O)(Cn1ccc(NC(=O)c2cc(Oc3ccc(C(=O)N4CCC4)nc3)cc(OC(C)C)c2)n1)OCC	< 4.10					
	94	7.55	53.4	CCOP(=O)(Cn1ccc(NC(=O)c2cc(Oc3ccc(S(=O)(=O)CC)cc3)cc(OC(C)C)c2)n1)OCC						
	100	6.18		CCOP(=O)(Cn1ccc(NC(=O)c2cc(Oc3cnc(C(N)=O)cn3)cc(OC(C)C)c2)n1)OCC	< 4.10					
980 (≈ 1750 µM)	99	6.83		CCOP(=O)(Cn1ccc(NC(=O)c2cc(Oc3cnc(C(=O)N(C)C)cn3)cc(OC(C)C)c2)n1)OCC	< 4.10					
	98	6.71		CCOP(=O)(Cn1ccc(NC(=O)c2cc(Oc3cnc(C(=O)NC)cn3)cc(OC(C)C)c2)n1)OCC	< 4.10					
1 (≈ 1.71 µM)	78	7.06	56	CCOP(=O)(Cn1ccc(NC(=O)c2cc(Oc3ccc(S(C)(=O)=O)cc3)cc(O[C@@H](C)CF)c2)n1)OCC	< 4.10					
	96	7.62	47.1	CCOP(=O)(Cn1ccc(NC(=O)c2cc(Oc3ccc(S(C)(=O)=O)nc3)cc(OC(C)C)c2)n1)OCC	< 4.10					
471 (≈ 830 µM)	100	6.63	31.4	CCOP(=O)(Cn1ccc(NC(=O)c2cc(Oc3cnc(S(C)(=O)=O)nc3)cc(OC(C)C)c2)n1)OCC	< 4.10					
3830 (≈ 6750 µM)	100	6.28	25.5	CCOP(=O)(Cn1ccc(NC(=O)c2cc(Oc3ccc(S(C)(=O)=O)nn3)cc(OC(C)C)c2)n1)OCC	< 4.10					
	91	6.80	44.5	CCOP(=O)(Cn1ccc(NC(=O)c2cc(Oc3cnc(S(C)(=O)=O)cn3)cc(OC(C)C)c2)n1)OCC	< 4.10					
7 (≈ 12 µM)	90	7.10	0.7	CCOP(=O)(Cn1ccc(NC(=O)c2cc(Oc3ccc(S(C)(=O)=O)cc3)cc(O[C@@H](C)CO)c2)n1)OCC	< 4.10					
3 (≈ 5.05 µM)	77	7.49	53.6	CCOP(=O)(Cn1ccc(NC(=O)c2cc(Oc3ccc(S(=O)(=O)C(C)C)cc3)cc(OC(C)C)c2)n1)OCC	4.52					
1 (≈ 1.77 µM)	88	7.32	50.1	CCOP(=O)(Cn1ccc(NC(=O)c2cc(Oc3ccc(S(C)(=O)=O)cc3)cc(OC(C)C)c2)n1)OCC	< 4.10					
229 (≈ 400 µM)	99	7.21		CCOP(=O)(Cn1ccc(NC(=O)c2cc(Oc3cnc(C(=O)N4CCC4)nc3)cc(OC(C)C)c2)n1)OCC	< 4.10					

The remaining lines, values behind:

Structure (SMILES)	solubility [1] [µg/mL]	remaining at 10 min, 0.5 µM [2] [%]	pEC50 (Hexokinase-4 [4])	Papp [5] [×10⁻⁶ cm/s]	pIC50 [3]	inhibition at 10 µM (hERG (KCNH2)) [%]	pIC50 (Hexokinase-4 [6])	pEC50 (Hexokinase-4 [7])	pEC50 (Hexokinase-4 [8])	pEC50 (Hexokinase-4 [9])
CCOP(=O)(Cn1ccc(NC(=O)c2cc(Oc3ccc(S(C)(=O)=O)cc3)cc(O[C@@H](C)COC)c2)n1)OCC	240 (≈ 403 µM)	11	7.12		< 4.10					
CCOP(=O)(Cn1ccc(NC(=O)c2cc(Oc3ccc(S(=O)(=O)N4CCC4)cc3)cc(OC(C)C)c2)n1)OCC	2 (≈ 3.3 µM)	46	7.17	51.6	4.48					
CCO[P@](C)(=O)Cn1ccc(NC(=O)c2cc(Oc3ccc(S(C)(=O)=O)cc3)cc(O[C@@H](C)COC)c2)n1	547 (≈ 967 µM)	81	6.77		< 4.10					
CCOP(=O)(Cn1ccc(NC(=O)c2cc(Oc3ccc(C(=O)N4CCC4)nn3)cc(OC(C)C)c2)n1)OCC	409 (≈ 714 µM)	99	5.91		< 4.10					
COC[C@H](C)Oc1cc(Oc2ccc(S(C)(=O)=O)cc2)cc(C(=O)Nc2ccn(CP(C)(C)=O)n2)c1	96 (≈ 179 µM)	96	6.17		< 4.10					
CCOP(=O)(Cn1ccc(NC(=O)c2cc(Oc3ccc(S(C)(=O)=O)cc3)cc(OC(CF)CF)c2)n1)OCC	10 (≈ 16.6 µM)	93	7.12	38.2	4.36					
CCOP(=O)(Cn1ncc(NC(=O)c2cc(Oc3ccc(S(C)(=O)=O)cc3)cc(O[C@@H](C)COC)c2)n1)OCC	5 (≈ 8.38 µM)	33	7.31							
CCOP(=O)(Cc1cnc(NC(=O)c2cc(Oc3ccc(S(C)(=O)=O)cc3)cc(O[C@@H](C)COC)c2)cn1)OCC	161 (≈ 265 µM)	54	6.79		< 4.10					
CCOP(=O)(Cn1ccc(NC(=O)c2cc(Oc3ccc(C(=O)N4CCC4)cn3)cc(OC(C)C)c2)n1)OCC	298 (≈ 521 µM)	99	6.73		< 4.10					
CCOP(=O)(Cc1csc(NC(=O)c2cc(Oc3ccc(S(C)(=O)=O)cc3)cc(O[C@@H](C)COC)c2)n1)OCC	16 (≈ 26.1 µM)	4	7.42		4.30	60	6.91	7.38	7.19	6.73
CCOP(=O)(Cn1ccc(NC(=O)c2cc(Oc3ccc(S(C)(=O)=O)cc3)cc(O[C@@H](CC)CO)c2)n1)OCC		82	7.01	8.4	< 4.10					
